Test results as given in patent US11377442B2, “Small molecule agonists and antagonists of NR2F6 activity” (ZANDER THERAPEUTICS, INC., priority 2016, dated 2022).
Like-named read-outs stand apart in the source and are kept apart here.

Columns and labels:
Format in all cases: cell-based
Renilla = Renilla signal in NR2F6 agonist screening, cmpd/DMSO; conditions: Renilla, F4
NR2F6 LBD = target: T1, NR2F6 LBD (Homo sapiens, UniProt P10588); experiment: NR2F6 LBD transient transfection; conditions: LBD
T1 construct: expressed in transfected cells
T1 sequence (P10588 165-393 limits assumed): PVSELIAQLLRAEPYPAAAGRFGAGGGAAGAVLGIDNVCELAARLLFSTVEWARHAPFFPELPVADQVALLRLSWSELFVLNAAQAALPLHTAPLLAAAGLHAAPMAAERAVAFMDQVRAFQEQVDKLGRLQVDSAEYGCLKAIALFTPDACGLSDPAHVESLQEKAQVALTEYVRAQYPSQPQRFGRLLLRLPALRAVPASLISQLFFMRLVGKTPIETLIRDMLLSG
Protocol: FIGS. 27A and 27B show NR2F6 and LBD transient transfection, respectively, for Compound D28. Higher concentrations were excluded due to lower signal (tox effect). FIGS. 27C and 27D show NR2F6 and LBD transient transfection at different concentrations for different compounds. 9 compounds were tested on LBD transfected cells (40, 10, 2 and 0.5 μM, 4 replicates). FIGS. 27E and 27F show toxicity of Compound D28. 9 compounds were tested for cytotoxicity on LBD transfected cells (40, 10, 2 and 0.5 μM, 4 replicates). […] Cytotoxicity normalized to DMSO is shown in FIG. 27F (0% cytotoxicity corresponds to DMSO signal, 100%—zero signal).
FIGS. 34A and 34B show NR2F6 LBD transient transfection for Compound E21. 9 compounds were tested on LBD transfected cells (40, 10, 2 and 0.5 μM, 4 replicates). FIGS. 34C and 34D show NR2F6 and LBD transient transfection at different concentrations for different compounds. 9 compounds were tested on LBD transfected cells (40, 10, 2 and 0.5 μM, 4 replicates). […] Cytotoxicity normalized to DMSO is shown in FIG. 34D (0% cytotoxicity corresponds to DMSO signal, 100%—zero signal). All compounds were tested at 5, 10, 25 and 50 uM in duplicates. Dog PBMC (1×10^6 cells/mL) were activated by 10 ng/mL PMA+500 ng/mL ionomycin. Data were normalized to controls with (100%)/without (0%) PMA+ionomycin activation.
FIGS. 39A and 39B show NR2F6 LBD transient transfection for Compound F1. 9 compounds were tested on LBD transfected cells (40, 10, 2 and 0.5 μM, 4 replicates). FIGS. 39C and 39D show toxicity of NR2F6 LBD transient transfection. 9 compounds were tested for cytotoxicity on LBD transfected cells (40, 10, 2 and 0.5 μM, 4 replicates). Tox effect causes lower signal compared to DMSO. Cytotoxicity normalized to DMSO is shown in FIG. 39D (0% cytotoxicity corresponds to DMSO signal, 100%—zero signal).

HEK293 pGL4 = experiment: Firefly_pGL signal, cmpd/DMSO (pGL4 control cells); conditions: Homo sapiens
NR2F6 = target: T2, NR2F6 (Homo sapiens, UniProt P10588); experiment: NR2F6 agonist screening, Firefly signal cmpd/DMSO; conditions: F4
T2 construct: expressed in transfected cells; also transient transfection
T2 sequence (P10588 1-404): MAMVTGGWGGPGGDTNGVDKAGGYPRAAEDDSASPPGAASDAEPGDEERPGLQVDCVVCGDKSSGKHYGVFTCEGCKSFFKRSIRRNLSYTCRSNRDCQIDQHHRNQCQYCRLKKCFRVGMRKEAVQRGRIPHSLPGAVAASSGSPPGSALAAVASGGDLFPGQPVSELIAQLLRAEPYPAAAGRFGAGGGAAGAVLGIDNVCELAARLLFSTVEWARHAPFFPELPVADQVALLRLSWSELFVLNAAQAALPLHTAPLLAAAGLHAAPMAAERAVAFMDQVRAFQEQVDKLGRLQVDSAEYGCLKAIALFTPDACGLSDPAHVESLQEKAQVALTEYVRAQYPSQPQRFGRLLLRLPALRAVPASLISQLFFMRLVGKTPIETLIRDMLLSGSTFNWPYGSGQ

[1] = read-out: Renilla, F4, cmpd/DMSO (mean)
[2] = 1% FBS, read-out: Renilla, F4, 1% FBS, cmpd/DMSO (mean)
[3] = 10% FBS, read-out: Renilla, F4, 10% FBS, cmpd/DMSO (mean)

Firefly LBD, cmpd/DMSO (mean) (NR2F6 LBD; 0.5 uM): 1.0
Firefly LBD, cmpd/DMSO (mean) (NR2F6 LBD; 2 uM): 1.4
Firefly LBD, cmpd/DMSO (mean) (NR2F6 LBD; 10 uM): 1.3
Firefly LBD, cmpd/DMSO (mean) (NR2F6 LBD; 40 uM): 2.1
Firefly F4, cmpd/DMSO (mean) (NR2F6; 0.5 uM): 1.0
Firefly F4, cmpd/DMSO (mean) (NR2F6; 2 uM): 1.3
Firefly F4, cmpd/DMSO (mean) (NR2F6; 10 uM): 1.3
Firefly F4, cmpd/DMSO (mean) (NR2F6; 40 uM): 1.9
Firefly, F4, 1% FBS, cmpd/DMSO (mean) (NR2F6; 0.5 uM): 1.2
Firefly, F4, 1% FBS, cmpd/DMSO (mean) (NR2F6; 2 uM): 1.1
Firefly, F4, 1% FBS, cmpd/DMSO (mean) (NR2F6; 10 uM): 1.1
Firefly, F4, 1% FBS, cmpd/DMSO (mean) (NR2F6; 40 uM): 1.8
Firefly, F4, 10% FBS, cmpd/DMSO (mean) (NR2F6; 0.5 uM): 1.2
Firefly, F4, 10% FBS, cmpd/DMSO (mean) (NR2F6; 2 uM): 1.0
Firefly, F4, 10% FBS, cmpd/DMSO (mean) (NR2F6; 10 uM): 1.1
Firefly, F4, 10% FBS, cmpd/DMSO (mean) (NR2F6; 40 uM): 2.2
SMILES: O=S1(=O)C[C@H](NCc2ccncc2)[C@@H](S(=O)(=O)c2cccs2)C1 [Compound D108]
fold induction at 0.5 µM (Renilla; [1]): 1
fold induction at 2 µM (Renilla; [1]): 1
fold induction at 10 µM (Renilla; [1]): 1.1
fold induction at 40 µM (Renilla; [1]): 1.2
fold induction at 0.5 µM (Renilla; [2]): 1
fold induction at 2 µM (Renilla; [2]): 1.2
fold induction at 10 µM (Renilla; [2]): 1.1
fold induction at 40 µM (Renilla; [2]): 1.4
fold induction at 0.5 µM (Renilla; [3]): 1
fold induction at 2 µM (Renilla; [3]): 0.9
fold induction at 10 µM (Renilla; [3]): 1
fold induction at 40 µM (Renilla; [3]): 1.4
fold induction at 0.5 µM (HEK293 pGL4; HEK293, 0.5 uM, pGL4, read-out: Firefly pGL4, cmpd/DMSO (mean)): 0.9
fold induction at 2 µM (HEK293 pGL4; HEK293, 2 uM, pGL4, read-out: Firefly pGL4, cmpd/DMSO (mean)): 1
fold induction at 10 µM (HEK293 pGL4; HEK293, 10 uM, pGL4, read-out: Firefly pGL4, cmpd/DMSO (mean)): 1.2
fold induction at 40 µM (HEK293 pGL4; HEK293, 40 uM, pGL4, read-out: Firefly pGL4, cmpd/DMSO (mean)): 1.5
fold induction at 0.5 µM (HEK293 pGL4; HEK293, pGL4, 1% FBS, 0.5 uM, read-out: Firefly, pGL4, 1% FBS, cmpd/DMSO (mean)): 1.5
fold induction at 2 µM (HEK293 pGL4; HEK293, pGL4, 1% FBS, 2 uM, read-out: Firefly, pGL4, 1% FBS, cmpd/DMSO (mean)): 1.2
fold induction at 10 µM (HEK293 pGL4; HEK293, pGL4, 1% FBS, 10 uM, read-out: Firefly, pGL4, 1% FBS, cmpd/DMSO (mean)): 1.2
fold induction at 40 µM (HEK293 pGL4; HEK293, pGL4, 1% FBS, 40 uM, read-out: Firefly, pGL4, 1% FBS, cmpd/DMSO (mean)): 1.1
fold induction at 0.5 µM (HEK293 pGL4; HEK293, pGL4, 10% FBS, 0.5 uM, read-out: Firefly, pGL4, 10% FBS, cmpd/DMSO (mean)): 1.1
fold induction at 2 µM (HEK293 pGL4; HEK293, pGL4, 10% FBS, 2 uM, read-out: Firefly, pGL4, 10% FBS, cmpd/DMSO (mean)): 1.1
fold induction at 10 µM (HEK293 pGL4; HEK293, pGL4, 10% FBS, 10 uM, read-out: Firefly, pGL4, 10% FBS, cmpd/DMSO (mean)): 1.1
fold induction at 40 µM (HEK293 pGL4; HEK293, pGL4, 10% FBS, 40 uM, read-out: Firefly, pGL4, 10% FBS, cmpd/DMSO (mean)): 1.4
